The results in this text go back to US7067517B2 (priority 2001, dated 2006).

Each structure is given as a SMILES string. Structures can show the parent of a compound that is named as a salt.

The first data set deals with T1, Hormone-sensitive lipase (HSL) (Homo sapiens, UniProt Q05469).
T1 sequence (Q05469 1-1076): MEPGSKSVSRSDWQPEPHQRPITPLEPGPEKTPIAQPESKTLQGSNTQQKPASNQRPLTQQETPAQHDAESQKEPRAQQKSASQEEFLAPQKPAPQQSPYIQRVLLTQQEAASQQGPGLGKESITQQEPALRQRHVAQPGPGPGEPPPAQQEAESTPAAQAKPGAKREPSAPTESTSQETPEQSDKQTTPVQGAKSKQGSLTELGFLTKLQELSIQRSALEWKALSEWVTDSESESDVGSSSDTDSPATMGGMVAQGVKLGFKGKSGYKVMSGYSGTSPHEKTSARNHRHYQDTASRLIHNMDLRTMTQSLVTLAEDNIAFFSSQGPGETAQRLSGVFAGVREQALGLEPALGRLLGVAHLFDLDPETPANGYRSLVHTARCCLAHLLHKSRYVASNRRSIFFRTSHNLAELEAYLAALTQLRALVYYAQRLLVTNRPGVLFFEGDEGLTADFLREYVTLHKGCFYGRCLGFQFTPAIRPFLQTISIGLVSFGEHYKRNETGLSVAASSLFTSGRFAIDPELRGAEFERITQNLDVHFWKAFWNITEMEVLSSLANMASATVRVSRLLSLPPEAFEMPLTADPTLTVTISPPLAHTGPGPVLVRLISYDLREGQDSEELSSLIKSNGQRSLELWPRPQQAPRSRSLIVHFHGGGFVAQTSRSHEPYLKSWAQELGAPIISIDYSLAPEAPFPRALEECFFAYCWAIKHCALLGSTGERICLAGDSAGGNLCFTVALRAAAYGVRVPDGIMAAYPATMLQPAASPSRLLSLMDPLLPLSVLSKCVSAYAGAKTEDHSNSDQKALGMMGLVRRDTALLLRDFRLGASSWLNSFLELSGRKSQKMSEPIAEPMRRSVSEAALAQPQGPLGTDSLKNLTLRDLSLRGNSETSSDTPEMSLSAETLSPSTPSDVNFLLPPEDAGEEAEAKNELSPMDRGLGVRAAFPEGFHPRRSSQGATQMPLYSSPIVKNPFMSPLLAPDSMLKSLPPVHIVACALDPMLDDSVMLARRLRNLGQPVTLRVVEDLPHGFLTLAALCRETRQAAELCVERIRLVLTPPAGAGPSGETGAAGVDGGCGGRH
In words: Test 2848.2: high-volume screening assay, para-nitrophenyl butyrate (p-NPB) substrate. The data set is classed as biochemical. Particulars: UV-abs 405 nm, 20 min room temp, % Eff (% Inhibition). An excerpt: Materials. The Hormone-sensitive lipase was provided by Dr. Cecilia Holm, from Lund University Sweden or produced and purified by Novo Nordisk (NN) using the reagents and protocols used by Dr. Holm. The substrates used are: ^3H-labeled triolein (TO) from Amersham, Buckinghamshire, U.K. cat No. TRA191; 5–20 Ci/mmol dissolved in toluene, triolein (Sigma, Cat. No. T-1740), fluorochrome-labeled triacylglyceride (cis-octadec-9-enoic acid 2-[12-(7-nitrobenzo[1,2,5]oxadiazol-4-ylamino)dodecanoyloxy]-1-cis-octadec-9-enoyloxymethyl-ethyl ester) prepared by Novo Nordisk (NN) by conventional methods, and 1,3-(di[^3H]-stearin), 2-(PEG-Boitin)glycerol prepared in collaboration with Amersham Pharmacia Biotech, UK and described in WO 01/073442. Phosphatidyl choline (PC) and phosphatidyl inositol (PI) are from Sigma (St Luis Mo. cat. Nos. P-3556 and P-5954 respectively). All other reagents are of commercial grade and obtained from various commercial sources.
2848.2: This high-volume screening assay uses para-nitrophenyl butyrate (p-NPB) as substrate for HSL. HSL cleaves p-NPB and the reaction is monitored as an increase in the concentration of para-nitrophenol (p-NP). p-NP can be monitored as an increase in UV-absorbance at 405 nm. The reaction is carried out at room-temp. for 20 min. The action is not stopped, but instead UV-abs is measured at a fixed time (20 min.) Due to autohydrolysis of the substrate the reaction is read at t=0 min. too and t=20 min. and the increase in Abs is calculated as the difference between the two readings. When a compound that inhibits HSL is present, it results in a relative decrease in UV-absorbance. % Eff(% Inhibition)=(S−S0Eff)/(SmaxEff−S0Eff)×100 Where S=signal in UV-abs., S0Eff=assaybuffer alone, SmaxEff=Assaybuffer with the lipase inhibitor.
`O=C(Nc1ccc(Cl)c(Cl)c1)n1c(-c2ccccc2)nc2ccccc21` [Example 129, N-(3,4-Dichlorophenyl)-2-phenyl-benzimidazole-1-carboxamide]: the “Test 2848.2 HSL % Inhibition All” value came out at 27%.

For the compound `CN(C)C(=O)On1ccc2ccc(S(C)(=O)=O)cc21` [Example 114, Dimethylcarbamic acid 6-methanesulfonyl-indol-1-yl ester], the “Test 2848.2 HSL % Inhibition All” value was found to be 42.4%.

`CCCCCCC(C=Cc1ccc(Cl)cc1)=NOC(=O)NC(C)C` [Example 109, 1-(4-Chloro-phenyl)-non-1-en-3-one O-isopropylcarbamoyl-oxime]: the “Test 2848.2 HSL % Inhibition All” value is given as 15.9%. `CC12CCC(CC1=NOC(=O)NC1CCCCC1)C2(C)C` (stereo not drawn) [Example 107, 1,7,7-Trimethyl-bicyclo[2.2.1]heptan-2-one O-cyclohexylcarbamoyl-oxime]: the “Test 2848.2 HSL % Inhibition All” value came to 59.9%. On the same count and under the same terms, under `CCCNC(=O)ON=C(C=Cc1ccc(Br)cc1)CCC(C)C` [Example 111, 1-(4-Bromophenyl)-6-methyl-hept-1-en-3-one O-propylcarbamoyl-oxime] stands 36.2%; under `CC(C)CCC(C=Cc1ccc(Br)cc1)=NOC(=O)NC(C)C` [Example 108, 1-(4-Bromophenyl)-6-methyl-hept-1-en-3-one O-isopropylcarbamoyl-oxime], 37.2%; under `O=C(NC1CCCCC1)ON=C1c2ccccc2CCc2ccccc21` [Example 105, 10,11-Dihydro-dibenzo[a,d]cyclohepten-5-one O-cyclohexylcarbamoyl-oxime], 26.8%.

`CNC(=O)ON=Cc1c(Br)cnn1Cc1ccc(Cl)cc1` [Example 110, 4-Bromo-2-(4-chlorobenzyl)-2H-pyrazole-3-carbaldehyde O-methylcarbamoyl-oxime]: the “Test 2848.2 HSL % Inhibition All” value is 18.8%.

Test system in another data set: not given
Experiment: not given
Conditions: not given
Take `O=C(Oc1ccc(Oc2ccc(C(F)(F)F)cn2)cc1)N1CCN(c2ncccc2C(F)(F)F)CC1`: the melting point (in general, the temperature of the solid-liquid transition) was 131 to 132 °C. On the same count and under the same terms, with `O=C(Oc1ccc(Oc2ccc(C(F)(F)F)cn2)cc1)N1CCN(Cc2cccc(F)c2)CC1` (as salt: hydrochloride) the figure was 138 to 139 °C; with `CN(C(=O)On1cccn1)c1ccccc1`, 63 to 67 °C. Same read-out and setting: under `O=C(Oc1ccc(Oc2ccc(C(F)(F)F)cn2)cc1)N1CCN(Cc2ccccc2)CC1` (as salt: hydrochloride) stands 229 to 231 °C; under `COc1cccc(CN2CCN(C(=O)Oc3ccc(Oc4ccc(C(F)(F)F)cn4)cc3)CC2)c1` (as salt: hydrochloride), 214 to 215 °C; under `CC(C)(C)c1ccc(CN2CCN(C(=O)Oc3ccc(Oc4ccc(C(F)(F)F)cn4)cc3)CC2)cc1` (as salt: hydrochloride), 274 to 275 °C. Still for that read-out and setting: with `O=C(Oc1ccc(Oc2ccc(C(F)(F)F)cn2)cc1)N1CCN(c2ccccn2)CC1` (as salt: hydrochloride) the figure was 247 to 248 °C. For the compound `COc1ccc(N2CCN(C(=O)Oc3ccc(Oc4ccc(C(F)(F)F)cn4)cc3)CC2)c(OC)c1`, the melting point lay within 98 to 99 °C. Still for that read-out and setting: under `COc1cccc(N2CCN(C(=O)Oc3ccc(Oc4ccc(C(F)(F)F)cc4)cc3)CC2)c1` (as salt: hydrochloride) stands 168 to 171 °C; under `O=C(Oc1ccc(Oc2ccc(C(F)(F)F)cn2)cc1)N1CCN(CCc2cccs2)CC1` (as salt: hydrochloride), 236 to 237 °C; under `O=C(Oc1ccc(Oc2ccc(C(F)(F)F)cn2)cc1)N1CCN(CCc2ccncc2)CC1` (as salt: hydrochloride), 268 to 271 °C (dec.). The same measure, in the same setting: under `O=C(Oc1ccc(Oc2ccc(C(F)(F)F)cn2)cc1)N1CC2CC1CN2Cc1ccccc1` (stereo not drawn) stands 114 to 115 °C; under `Cc1c(Cc2ccc(F)cc2)c(=O)oc2cc(OC(=O)N(C)c3ccccc3)ccc12`, 185 to 186 °C; under `O=C(Oc1ccc(Oc2ccc(C(F)(F)F)cn2)cc1)N1CCN(Cc2ccc3c(c2)OCO3)CC1` (as salt: hydrochloride), 239 to 240 °C. For the compound `COc1ccc(CN2CCN(C(=O)Oc3ccc(Oc4ccc(C(F)(F)F)cn4)cc3)CC2)cc1` (as salt: hydrochloride), the melting point was 237 to 238 °C. Still for that read-out and setting: under `O=C(Oc1ccc(Oc2ccc(C(F)(F)F)cn2)cc1)N1CCN(c2ccccc2)CC1` stands 117 °C. The same measure, in the same setting: under `O=C(Oc1ccc(Oc2ccc(C(F)(F)F)cn2)cc1)N1CCN(c2cnccn2)CC1` stands 160 to 161 °C; under `CCCCN1CCN(C(=O)Oc2ccc(Oc3ccc(C(F)(F)F)cn3)cc2)CC1` (as salt: hydrochloride), 221 to 222 °C; under `O=C(Oc1ccc(Oc2ccc(C(F)(F)F)cn2)cc1)N1CCCN(Cc2ccc(-c3ccccc3)cc2)CC1`, 143 °C. On the same count and under the same terms, with `O=C(Oc1ccc(Oc2ccc(C(F)(F)F)cn2)cc1)N1CCN(Cc2c(F)cccc2Cl)CC1` (as salt: hydrochloride) the figure was 204 to 205 °C; with `O=C(Oc1ccc(Oc2ccc(C(F)(F)F)cn2)cc1)N1CCN(C2CCCC2)CC1` (as salt: hydrochloride), 294 to 295 °C. For the compound `Cc1cc(C)nc(Sc2ccc(OC(=O)N3CCN(Cc4cccc(F)c4)CC3)cc2)n1`, the melting point was in the range of 117 to 118 °C. Still for that read-out and setting: with `O=C(CN1CCN(C(=O)Oc2ccc(Oc3ccc(C(F)(F)F)cn3)cc2)CC1)N1CCCC1` (as salt: hydrochloride) the figure was 224 °C.

`O=C(Oc1ccc(Oc2ccc(C(F)(F)F)cc2)cc1)N1CCN(CCOCCO)CC1` (as salt: hydrochloride) gave a melting point of 176 to 178 °C. The compound `O=C(Oc1ccc(Oc2ccc(C(F)(F)F)cn2)cc1)N1CCN(Cc2ccc(F)cc2)CC1` (as salt: hydrochloride) displayed a melting point of 240 to 243 °C. On to `O=C(Oc1ccc(Oc2ccc(C(F)(F)F)cn2)cc1)N1CCN(c2ccc(Cl)c(Cl)c2)CC1`, for which the melting point is 115 to 116 °C. Still for that read-out and setting: under `O=C(Oc1ccc(Oc2ccc(C(F)(F)F)cn2)cc1)N1CCN(c2ccc(F)cc2)CC1` (as salt: hydrochloride) stands 131 to 132 °C. On the same count and under the same terms, under `O=C(Oc1ccc(Oc2ccc(C(F)(F)F)cn2)cc1)N1CCN(CCO)CC1` (as salt: hydrochloride) stands 255 °C; under `O=C(Oc1ccc(Oc2ccc(C(F)(F)F)cn2)cc1)N1CCN(Cc2ccccn2)CC1` (as salt: hydrochloride), 189 to 190 °C. The same measure, in the same setting: with `O=C(Oc1ccc(Oc2ccc(C(F)(F)F)cn2)cc1)N1CCN(c2ncccn2)CC1` the figure was 120 to 121 °C; with `O=C(Oc1ccc(Oc2ccc(C(F)(F)F)cn2)cc1)N1CCN(c2ccc3c(c2)OCO3)CC1`, 146 to 147 °C; with `Cc1ccc(CN2CCN(C(=O)Oc3ccc(Oc4ccc(C(F)(F)F)cc4)cc3)CC2)cc1` (as salt: hydrochloride), 250 to 252 °C. As for `O=C(Oc1ccc(Oc2ncc(C(F)(F)F)cc2Cl)cc1)N1CCN(Cc2ccccc2)CC1` (as salt: hydrochloride), the melting point was 111 to 113 °C.

As for `O=C(Oc1ccc(Oc2ccc(C(F)(F)F)cc2)cc1)N1CCN(C2CCCCC2)CC1` (as salt: hydrochloride), the melting point is 290 to 291 °C.
